Source: patent publication US20100190849A1, “Novel Clerodanes and Methods for Repelling Arthropods” (priority 2006, published 2010)
Marks after values point to notes of the source that are not given here.

Assays:
Assay in all cases: Multiple-choice digging bioassay, fire ant workers
Format in all cases: in vivo
[1] = system: red imported fire ants, Solenopsis invicta Buren
Procedure: (§1) The repellency of the two terpenoids, callicarpenal and intermedeol, against workers of red imported fire ants, Solenopsis invicta Buren, black imported fire ants, Solenopsis rickeri Forel, and a hybrid of these two species was evaluated using multiple-choice digging bioassays (Tables 9 & 10). […] Callicarpenal and intermedeol were compared with octanoic acid, a known fire ant repellant, at the 25.00 ppm level using two-choice digging bioassays (FIGS. 3 and 4).
(§2) Ants: Two Solenopsis invicta colonies were collected in Sharkey County, Mississippi, and two Solenopsis richteri colonies were collected in Granada County, Mississippi. Two colonies of the hybrid (S. invicta×S. richteri) colony were collected in Sunflower County, Mississippi. Fire ant mounds were shoveled and placed in 19-L plastic buckets. The inside wall of the bucket was then coated with baby powder (Cumberland Swan Holdings, Inc., Smyrna, Tenn.) to prevent ant escape. Following the water-drip method developed by Bank et al. (Banks, W. A., et al., Techniques for collecting, rearing, and handling imported fire ants, USDA SEA AATS-S-21 (1981)), ants were separated and then placed in a 44.5×60.0×13.0 cm plastic tray with inside walls coated with Fluon® (Ag Fluoropolymers, Chadds Ford, Pa.). Distilled water and 15% (w/v) sucrose water solution in separated test tubes which were plugged with cotton balls were placed in the trays. Heliocoverpa zea (Boddie) and tobacco budworm, Heliothis virescens (Fabricius) pupae were used as food sources. Inside each tray were one to three 14.0×2.0 cm Petri dishes with 1.0 cm of hardener dental plaster (Castone®; Dentsply International Inc. York, Pa.) on the bottom. Also, in the center of the Petri dish was a 5.0-cm diameter brood chamber. Two 8-mm access holes were made on the wall of the petri dish above the dental plaster. The Petri dish lid was painted black (1302 Gloss Black Spray Enamel, Louisville, Ky.)to block the light. All colonies were maintained at 22-25° C.
(§3) Fire ant workers dug and removed sand from the tube through the entry hole. The differences in the amount of removed sand among treated and control tubes were used to evaluate chemical repellency. Four 2 ml centrifuge tubes were mounted under a 14.0×2.3 cm Petri dish using glue (Arrow Fastener Co., inc., Saddle Brook, N.J.). Tubes were 5.0 cm away from the center of the Petri dish and at equal distance from each other. A 3-mm diameter access hole was drilled for each centrifuge tube, which went through the bottom of the Petri dish and the cap of the tube. The inner side of the Petri dish was coated with Fluon. Three concentrations of a test compound and one control were set up in each apparatus. Six concentrations, including […], 6.25, 12.50, and 25.00 ppm, were tested in two separated bioassays for each species and hybrid; however three more concentrations of callicarpenal, 50.00, 100.00, and […], were tested for S. invicta. Sand (Premium Play Sand, Plassein International, Longview, Tex.) was first sieved through a ™35 U.S.A. standard testing sieve (Thomas Scientific, Swedesboro, N.J.) and then washed with distilled water and dried at 350° C. for 12 h. A 3 ml dichloromethane solution of callicarpenal or intermedeol was mixed with 30 g sand in an aluminum pan. The sand was stirred every 2 min to facilitate the evaporation of the solvent under a fume hood. After dichloromethane evaporated (5 minutes), 1.92 ml distilled water was added and mixed with sand. Sand in the control tube was treated only with dichloromethane. In each tube a mean (±SD) 2.78 g (±0.06 g) wet sand was added. There was no open space inside the tube. Locations of each concentration were randomized. Fifty fire ant workers were introduced into the center of the Petri Dish. The experiment was conducted at 22±0.8° C. (mean±SD) temperature and 45.4%±11.87% relative humidity. After 24 h, sand in each vial was collected, dried at 150° C. for at least 4 hour, and weighed. […]

[2] = system: black imported fire ants, Solenopsis richteri Forel
Procedure: as §1, §2, §3

[3] = system: hybrid (S. invicta×S. richteri)
Procedure: as §1, §2, §3

Q: `CC1=CCC[C@@H]2[C@@](C)(CC=O)[C@H](C)CC[C@@]12C` [callicarpenal, 13,14,15,16-tetranorclerod-3-en-12-al] was tested. Which “Sand removed (SE), mean weight of sand removed by ants 24 h after release” value (from here on “Sand removed (SE), mean weight”) ([1]; S. invicta colony 1, Exp. 1, 0.75 ppm) did it give?
A: Its value is 0.19 (0.07) g.

Q: What about the “Sand removed (SE), mean weight” value ([1]; S. invicta colony 1, Exp. 1, 1.50 ppm) of the same molecule?
A: Its value is 0.24 (0.15) g.

Q: What about the “Sand removed (SE), mean weight” value ([1]; S. invicta colony 1, Exp. 1, 3.15 ppm) of the same molecule?
A: Its value is 0.40 (0.20) g.

Q: And the “Sand removed (SE), mean weight” value ([1]; S. invicta colony 1, Exp. 2, 6.25 ppm)?
A: The value was 0.21 (0.12) g.

Q: And the “Sand removed (SE), mean weight” value ([1]; S. invicta colony 1, Exp. 2, 12.50 ppm)?
A: Its value is 0.48 (0.19) g.

Q: And the “Sand removed (SE), mean weight” value ([1]; S. invicta colony 1, Exp. 2, 25.00 ppm)?
A: Its value is 0.08 (0.05) g.

Q: And the “Sand removed (SE), mean weight” value ([1]; S. invicta colony 1, Exp. 3, 50.00 ppm)?
A: Its value is 0.04 (0.004)* g.

Q: What about the “Sand removed (SE), mean weight” value ([1]; S. invicta colony 1, Exp. 3, 100.00 ppm) of the same molecule?
A: Its value is 0.02 (0.008)* g.

Q: And the “Sand removed (SE), mean weight” value ([1]; S. invicta colony 1, Exp. 3, 150.00 ppm)?
A: The value was 0.03 (0.007)* g.

Q: And the “Sand removed (SE), mean weight” value ([1]; S. invicta colony 2, Exp. 4, 0.75 ppm)?
A: The value was 0.32 (0.16) g.

Q: What about the “Sand removed (SE), mean weight” value ([1]; S. invicta colony 2, Exp. 4, 1.50 ppm) of the same molecule?
A: Its value is 0.32 (0.15) g.

Q: What about the “Sand removed (SE), mean weight” value ([1]; S. invicta colony 2, Exp. 4, 3.15 ppm) of the same molecule?
A: The value was 0.36 (0.11) g.

Q: What about the “Sand removed (SE), mean weight” value ([1]; S. invicta colony 2, Exp. 5, 6.25 ppm) of the same molecule?
A: The value was 0.24 (0.21) g.

Q: What about the “Sand removed (SE), mean weight” value ([1]; S. invicta colony 2, Exp. 5, 12.50 ppm) of the same molecule?
A: The value was 0.45 (0.18) g.

Q: And the “Sand removed (SE), mean weight” value ([1]; S. invicta colony 2, Exp. 5, 25.00 ppm)?
A: Its value is 0.02 (0.01) g.

Q: And the “Sand removed (SE), mean weight” value ([1]; S. invicta colony 2, Exp. 6, 50.00 ppm)?
A: The value was 0.02 (0.007)* g.

Q: And the “Sand removed (SE), mean weight” value ([1]; S. invicta colony 2, Exp. 6, 100.00 ppm)?
A: Its value is 0.08 (0.06)* g.

Q: What about the “Sand removed (SE), mean weight” value ([1]; S. invicta colony 2, Exp. 6, 150.00 ppm) of the same molecule?
A: The value was 0.07 (0.03)* g.

Q: What about the “concentration at which significant repellency was shown” value ([1]; S. invicta, two colonies, in sand, 24 h) of the same molecule?
A: The value was no less than 50.00 ppm.

Q: What about the “Sand removed (SE), mean weight” value ([2]; S. richteri colony 1, Exp. 7, 0.75 ppm) of the same molecule?
A: The value was 0.40 (0.16) g.

Q: What about the “Sand removed (SE), mean weight” value ([2]; S. richteri colony 1, Exp. 7, 1.50 ppm) of the same molecule?
A: Its value is 0.28 (0.12) g.

Q: And the “Sand removed (SE), mean weight” value ([2]; S. richteri colony 1, Exp. 7, 3.15 ppm)?
A: The value was 0.21 (0.13) g.

Q: What about the “Sand removed (SE), mean weight” value ([2]; S. richteri colony 1, Exp. 8, 6.25 ppm) of the same molecule?
A: The value was 0.10 (0.04)* g.

Q: What about the “Sand removed (SE), mean weight” value ([2]; S. richteri colony 1, Exp. 8, 12.50 ppm) of the same molecule?
A: The value was 0.40 (0.17)* g.

Q: What about the “Sand removed (SE), mean weight” value ([2]; S. richteri colony 1, Exp. 8, 25.00 ppm) of the same molecule?
A: The value was 0.08 (0.04)* g.

Q: And the “Sand removed (SE), mean weight” value ([2]; S. richteri colony 2, Exp. 9, 0.75 ppm)?
A: Its value is 0.27 (0.16) g.

Q: What about the “Sand removed (SE), mean weight” value ([2]; S. richteri colony 2, Exp. 9, 1.50 ppm) of the same molecule?
A: Its value is 0.85 (0.22) g.

Q: And the “Sand removed (SE), mean weight” value ([2]; S. richteri colony 2, Exp. 9, 3.15 ppm)?
A: The value was 0.17 (0.11) g.

Q: What about the “Sand removed (SE), mean weight” value ([2]; S. richteri colony 2, Exp. 10, 6.25 ppm) of the same molecule?
A: The value was 0.10 (0.04)* g.

Q: What about the “Sand removed (SE), mean weight” value ([2]; S. richteri colony 2, Exp. 10, 12.50 ppm) of the same molecule?
A: Its value is 0.10 (0.04)* g.

Q: What about the “Sand removed (SE), mean weight” value ([2]; S. richteri colony 2, Exp. 10, 25.00 ppm) of the same molecule?
A: The value was 0.01 (0.002)* g.

Q: And the “Sand removed (SE), mean weight” value ([3]; Hybrid colony 1, Exp. 11, 0.75 ppm)?
A: The value was 0.66 (0.09) g.

Q: And the “Sand removed (SE), mean weight” value ([3]; Hybrid colony 1, Exp. 11, 1.50 ppm)?
A: The value was 0.59 (0.10) g.

Q: And the “Sand removed (SE), mean weight” value ([3]; Hybrid colony 1, Exp. 11, 3.15 ppm)?
A: Its value is 0.30 (0.11) g.

Q: And the “Sand removed (SE), mean weight” value ([3]; Hybrid colony 1, Exp. 12, 6.25 ppm)?
A: Its value is 0.53 (0.13)* g.

Q: And the “Sand removed (SE), mean weight” value ([3]; Hybrid colony 1, Exp. 12, 12.50 ppm)?
A: The value was 0.26 (0.05)* g.

Q: And the “Sand removed (SE), mean weight” value ([3]; Hybrid colony 1, Exp. 12, 25.00 ppm)?
A: Its value is 0.39 (0.14)* g.

Q: And the “Sand removed (SE), mean weight” value ([3]; Hybrid colony 2, Exp. 13, 0.75 ppm)?
A: Its value is 0.53 (0.14) g.

Q: And the “Sand removed (SE), mean weight” value ([3]; Hybrid colony 2, Exp. 13, 1.50 ppm)?
A: Its value is 0.36 (0.09) g.

Q: And the “Sand removed (SE), mean weight” value ([3]; Hybrid colony 2, Exp. 13, 3.15 ppm)?
A: The value was 0.58 (0.12) g.

Q: What about the “Sand removed (SE), mean weight” value ([3]; Hybrid colony 2, Exp. 14, 6.25 ppm) of the same molecule?
A: Its value is 0.47 (0.09)* g.

Q: And the “Sand removed (SE), mean weight” value ([3]; Hybrid colony 2, Exp. 14, 12.50 ppm)?
A: Its value is 0.30 (0.11)* g.

Q: What about the “Sand removed (SE), mean weight” value ([3]; Hybrid colony 2, Exp. 14, 25.00 ppm) of the same molecule?
A: The value was 0.21 (0.11)* g.

Q: And the “concentration at which significant repellency was shown” value ([3]; hybrid, two colonies, in sand, 24 h)?
A: Its value is no less than 6.25 ppm.
